# Values quoted from earlier work, collected in patent US20090285840A1, “METHODS FOR TREATING PATHOLOGICAL NEOVASCULARIZATION” (New York Society for the Ruptured and Crippled Maintaining …, priority 2008, published 2009).
# System: human ADAM9 mRNA
# Set-up: concentration or dose not given beside the values
# Settings: percentage inhibition data reported in US 2004/0092466, Example 15; target SEQ ID NO 94; cited from earlier work
row,Substance,% INHIB [%]
1,"33 (ATTCATTCCAAGATTATGAC; listed as DNA, chemistry not given here) [compound 33]",75
2,"53 (GCACCACATTTTGTGCCTTC; listed as DNA, chemistry not given here) [compound 53]",74
3,"40 (GTGAGGGAACTATATAAAGG; listed as DNA, chemistry not given here) [compound 40]",66
4,"42 (AAAATTTTACGATCCATACC; listed as DNA, chemistry not given here) [compound 42]",72
5,"46 (CAAGATTCTAGAGTATGATG; listed as DNA, chemistry not given here) [compound 46]",85
6,"37 (CAATGGATGAATTATGAACT; listed as DNA, chemistry not given here) [compound 37]",62
7,"30 (AAGATTTTATAATTGCTCCT; listed as DNA, chemistry not given here) [compound 30]",71
8,"43 (CTGGAACATCTGATCCTAGC; listed as DNA, chemistry not given here) [compound 43]",77
9,"27 (CTGCTTTATTATAGCCATGA; listed as DNA, chemistry not given here) [compound 27]",85
10,"23 (CCTCTTCATCCTTTGCAGTT; listed as DNA, chemistry not given here) [compound 23]",84
11,"25 (CAAGATTATGACCCAATTCA; listed as DNA, chemistry not given here) [compound 25]",69
12,"59 (GGGAACTGCTGAGGTTGCTT; listed as DNA, chemistry not given here) [compound 59]",46
13,"41 (AGGAATTAAGTTTCCCTGAG; listed as DNA, chemistry not given here) [compound 41]",74
14,"44 (CAAATGTCTCCACAGTGATT; listed as DNA, chemistry not given here) [compound 44]",79
15,"35 (GGGTCTGTGGCAAGACAGCT; listed as DNA, chemistry not given here) [compound 35]",65
16,"51 (AGAAAACCATTTCTTCCTTC; listed as DNA, chemistry not given here) [compound 51]",75
17,"31 (CGATAAATGATGTGCTCAAA; listed as DNA, chemistry not given here) [compound 31]",36
18,"32 (CAGTGATTTGTCCAAACACA; listed as DNA, chemistry not given here) [compound 32]",30
19,"45 (GCTATTGTGAACGAATGTCA; listed as DNA, chemistry not given here) [compound 45]",86

row,Substance,% INHIB [%]
1,"47 (ATCATGTCATACCTTTCCTT; listed as DNA, chemistry not given here) [compound 47]",81
2,"24 (GTTTCCATTGGTCCAAATCT; listed as DNA, chemistry not given here) [compound 24]",77
3,"36 (TCTTTGCTCCACAGGAACAA; listed as DNA, chemistry not given here) [compound 36]",77
4,"29 (TACATTAATGATAACTAAGG; listed as DNA, chemistry not given here) [compound 29]",68
5,"49 (ACTGAAGCTTTCCACACAAA; listed as DNA, chemistry not given here) [compound 49]",52
6,"50 (TCCCACAAATGCCATTCCTG; listed as DNA, chemistry not given here) [compound 50]",78
7,"38 (TCCGTATCCTTTAGTCTCAC; listed as DNA, chemistry not given here) [compound 38]",80
8,"52 (ATTATTGGCAGCTGATTAGT; listed as DNA, chemistry not given here) [compound 52]",79
9,"56 (AAGAAGACCAGAAGTCCGTC; listed as DNA, chemistry not given here) [compound 56]",74
10,"54 (CTGATTAGTCAGTTTTCACA; listed as DNA, chemistry not given here) [compound 54]",85
11,"26 (GAATATTAAGAAGGCAGTTT; listed as DNA, chemistry not given here) [compound 26]",27
12,"48 (GGGAGGCTCTTCCTCTTCAT; listed as DNA, chemistry not given here) [compound 48]",55
13,"39 (TTCCTTCTTTCTCCAGCCTA; listed as DNA, chemistry not given here) [compound 39]",81
14,"58 (GGTATCTCTTGTACATTCTC; listed as DNA, chemistry not given here) [compound 58]",18
15,"57 (ATTCCTTTGGAGTACCACAG; listed as DNA, chemistry not given here) [compound 57]",81
16,"28 (ATGACTGAATAAGACTTATT; listed as DNA, chemistry not given here) [compound 28]",68
17,"55 (TCAATGCAGTATTCATTTCA; listed as DNA, chemistry not given here) [compound 55]",49
18,"34 (TTAATAGCAAGCTTTGAAAG; listed as DNA, chemistry not given here) [compound 34]",68
